Calls of active or inactive are those of the source. No cut-off for these calls is given here.

The species named for test [1] is Rattus norvegicus. The following applies: Wistar, Liver, 3 mg/kg.
Test [2] has as its system Rattus norvegicus. Briefly: Inhibition of COMT in Wistar rat liver homogenates assessed as metanephrine formation at 3 mg/kg, po measured after 1 hr. It counts as functional, organism-based. On the set-up: dose 3 mg/kg.
The test system of test [3] is Rattus norvegicus. In words: Inhibition of COMT in po dosed Wistar rat liver homogenates assessed as metanephrine formation measured up to 3 hrs relative to control. It counts as functional.
Test [4] in a line: Cytotoxicity against mouse Neuro2a cells assessed as cell viability at 30 uM after 24 hrs. The format is functional. The following applies: N2a, read-out: Activity.
Test [5] concerns Rattus norvegicus. Briefly: Inhibition of COMT in Wistar rat brain homogenates assessed as metanephrine formation at 3 mg/kg, po measured after 1 hr. It counts as functional, organism-based. On the set-up: dose 3 mg/kg.
In test [6] the test system is Rattus norvegicus. Briefly: Inhibition of COMT in Wistar rat plasma assessed as increase L-DOPA level at 3 mg/kg, po co-administered with L-dopa and benserazide measured after 24 hrs by HPLC analysis. The format is functional, organism-based. On the set-up: dose 3 mg/kg.
Test [7] concerns Rattus norvegicus. In words: Inhibition of COMT in Wistar rat liver homogenates assessed as metanephrine formation at 3 mg/kg, po measured after 3 hrs relative to control; values are per cent of control.
In test [8] the test system is Rattus norvegicus. In words: Inhibition of COMT in Wistar rat brain homogenates assessed as metanephrine formation at 3 mg/kg, po measured after 3 hrs. The format is functional, organism-based. On the set-up: dose 3 mg/kg.
In test [9] the test system is Rattus norvegicus. Briefly: Inhibition of central COMT in Wistar rat brain homogenates assessed as metanephrine formation at 3 mg/kg, po measured after 9 hrs. The format is functional.
The test system of test [10] is Rattus norvegicus. Briefly: Inhibition of COMT in Wistar rat plasma assessed as decrease in 3-O-methyl-L-Dopa level at 3 mg/kg, po co-administered with L-dopa and benserazide measured after 7 hrs by HPLC analysis. On the set-up: dose 3 mg/kg. The format is functional, organism-based.
Test [11] concerns Rattus norvegicus. In words: Inhibition of COMT in Wistar rat plasma assessed as increase L-DOPA level at 3 mg/kg, po co-administered with L-dopa and benserazide measured after 7 hrs by HPLC analysis. The format is functional.
The subject of test [12] is Rattus norvegicus. Briefly: Inhibition of peripheral COMT in Wistar rat liver homogenates assessed as metanephrine formation at 3 mg/kg, po measured after 9 hrs.
Test [13] concerns Rattus norvegicus. In words: Inhibition of COMT in Wistar rat plasma assessed as increase L-DOPA level at 3 mg/kg, po co-administered with L-dopa and benserazide measured after 2 hrs by HPLC analysis. It counts as functional.
Test [14] deals with Rattus norvegicus. In words: Inhibition of COMT in Wistar rat liver homogenates assessed as metanephrine formation at 3 mg/kg, po measured after 3 hrs. The format is functional, organism-based. On the set-up: dose 3 mg/kg.
Test [15] deals with Mus musculus. Briefly: Inhibition of COMT in NMRI mouse liver homogenates assessed as metanephrine formation at 3 mg/kg, po measured after 3 hrs relative to control; values are per cent of control.
Test [16] has as its system Rattus norvegicus. In words: Inhibition of COMT in Wistar rat plasma assessed as decrease in 3-O-methyl-L-Dopa level at 3 mg/kg, po co-administered with L-dopa and benserazide measured after 2 hrs by HPLC analysis. It counts as functional, organism-based. On the set-up: dose 3 mg/kg.
For test [17], the system named is Mus musculus. In words: Inhibition of COMT in NMRI mouse liver homogenates assessed as metanephrine formation at 30 mg/kg, po measured after 6 hrs relative to control; values are per cent of control.
Test [18] deals with Rattus norvegicus. In words: Inhibition of central COMT in Wistar rat liver homogenates assessed as metanephrine formation at 3 mg/kg, po measured after 9 hrs. It counts as functional. The following applies: Brain, in the assay text read “rat brain homogenates” for “rat liver homogenates”.
Test [19] concerns Rattus norvegicus. In words: Inhibition of COMT in Wistar rat plasma assessed as decrease in 3-O-methyl-L-Dopa level at 3 mg/kg, po co-administered with L-dopa and benserazide measured after 2 hrs by HPLC analysis relative to control. The format is functional.
The test system of test [20] is Rattus norvegicus. Briefly: Inhibition of COMT in Wistar rat plasma assessed as decrease in 3-O-methyl-L-Dopa level at 3 mg/kg, po co-administered with L-dopa and benserazide measured after 24 hrs by HPLC analysis. On the set-up: dose 3 mg/kg. It counts as functional, organism-based.
Test [21] concerns Rattus norvegicus. Briefly: Inhibition of central COMT in Wistar rat brain homogenates assessed as metanephrine formation at 3 mg/kg, po measured up to 24 hrs.
Test [22] concerns Rattus norvegicus. In words: Inhibition of peripheral COMT in Wistar rat liver homogenates assessed as metanephrine formation at 3 mg/kg, po measured after 24 hrs. It counts as functional.
For test [23], the system named is Rattus norvegicus. In words: Inhibition of central COMT in Wistar rat brain homogenates assessed as metanephrine formation at 3 mg/kg, po measured up to 24 hrs. The format is functional, organism-based. On the set-up: dose 3 mg/kg.
Test [24] has as its system Rattus norvegicus. Briefly: Inhibition of peripheral COMT in Wistar rat brain homogenates assessed as metanephrine formation at 3 mg/kg, po measured after 24 hrs. The note with it: Liver, in the assay text read “rat liver homogenates” for “rat brain homogenates”. It counts as functional.

Turning to `Cc1ccc(C(=O)c2cc(O)c(O)c([N+](=O)[O-])c2)cc1` [TOLCAPONE], the inhibition result in the test filed under Rattus norvegicus [1], with Rattus norvegicus [6] and with Rattus norvegicus [12] was “inactive” in each case. The result with Rattus norvegicus [2] was Active. Further, the ED50 (in general, the midpoint of the dose-response relation) in the test with Rattus norvegicus [3] was found to be 1.77 mg/kg. In [4], the viability at 30 µM turned out to be 27.2%. The inhibition entry in the test on Rattus norvegicus [5], in the test with Rattus norvegicus [8], in the test on Rattus norvegicus [10], in the test with Rattus norvegicus [14] and in the test with Rattus norvegicus [16] was “Active” throughout. Moreover, the results for the level, % of control at 3 mg/kg in the test with Rattus norvegicus [7] and in the test with Mus musculus [15] were 23.8% and 15.1%, respectively. The inhibition in vivo at 3 mg/kg in the test on Rattus norvegicus [9] and in the test on Rattus norvegicus [18] was 50% throughout. Besides, the figures for the fold change (FC) with Rattus norvegicus [11] and in the test on Rattus norvegicus [13] were 2 and 3, respectively. Moreover, in the test with Mus musculus [17], the level, % of control at 30 mg/kg was determined as 6.8%.
For `Cc1c(Cl)c(C)[n+]([O-])c(Cl)c1-c1noc(-c2cc(O)c(O)c([N+](=O)[O-])c2)n1` [OPICAPONE], the inhibition entry with Rattus norvegicus [2], with Rattus norvegicus [20] and in the test on Rattus norvegicus [14] was “Active” throughout. In addition, the ED50 in the test on Rattus norvegicus [3] worked out at 1.05 mg/kg. The inhibition in vivo at 3 mg/kg in the test on Rattus norvegicus [19], in the test on Rattus norvegicus [22] and in the test on Rattus norvegicus [24] was 50% in each case. For the same compound, the viability at 30 µM in test [4] stood at 86.6%. For the same compound, the inhibition entry with Rattus norvegicus [21] and in the test with Rattus norvegicus [23] was “inactive” each time. Further, the level, % of control at 3 mg/kg in the test with Rattus norvegicus [7] worked out at 0.7%. Besides, the “fold change (FC)” value in the test with Rattus norvegicus [13] is on record as 2.
